Source: patent US8846949B2, “Pyrrolopyrazoles as N-type calcium channel blockers” (Janssen Pharmaceutica NV, priority 2012, dated 2014)

Molecular target: T1, N-type calcium channel α1B (Cav2.2), β3 and α2δ subunits (Homo sapiens, UniProt Q00975)
T1 construct: expressed in transfected cells
Assay: Functional assay, antagonism of N-type calcium channel (FDSS calcium mobilization response to KCl depolarization)
Format: cell-based
Settings: for IC50: HEK stable cell line, 50 mM KCl depolarization, six-point concentration-response; for inhibition at 0.33 µM: 0.33 μM compound, FDSS, 50 mM KCl
Description: A stable cell line (HEK parent) co-expressing the α1B (Cav2.2), β3 and α2δ subunits of the N-type calcium channel subunits was used. These cells were routinely grown as monolayers in low glucose-containing Dulbecco's Modified Eagle Medium supplemented with 10% FBS, 2 mM L-glutamine, 100 I.U./mL penicillin, 100 μg/mL streptomycin, 400 μg/mL G418 and 200 μg/mL Zeocin (split ratio=1:5). Cells were maintained in 5% CO2 at 37° C. Compounds of Formula (I) were prepared as 10 mM stocks in DMSO from neat compound, if available. Otherwise, the 5 or 10 mM DMSO stock solutions provided in-house were used.
Calcium mobilization responses to KCl depolarization were evaluated by measuring the intensity of calcium-mediated fluorescent signal in the presence of BD Calcium Assay Dye (BD Biosciences, Franklin Lakes, N.J., U.S.A.), utilizing a Functional Drug Screening System (FDSS) by Hamamatsu Corporation (Bridgewater, N.J. U.S.A.).
Twenty-four hr prior to assay, cells were seeded in clear-base poly-D-lysine-coated 384-well plates (BD Biosciences) at a density of 5,000 cells per well in culture medium and grown overnight in 5% CO2 at 37° C. On the day of assay, growth media were removed, and cells were loaded with BD calcium assay dye (BD Biosciences) for 35 min at 37° C. under 5% CO2 and then for 25 min at room temp. Utilizing the FDSS, cells were exposed to representative compounds of Formula (I) at varying concentrations, and intracellular calcium was measured for 5 min prior to the addition of 50 mM KCl for an additional 3 min of measurement.
IC50 values for representative compounds of Formula (I) were determined from six-point concentration-response experiments and represent the concentration of said compound required to inhibit 50% of the maximal response. Maximal fluorescence intensity (FI) achieved upon addition of 50 mM KCl was exported from the FDSS software and further analyzed using GraphPad Prism 3.02 (Graph Pad Software Inc., San Diego, Calif., U.S.A.). Data were normalized to the maximum average counts from quadruplicate wells for each condition in the presence of 50 mM KCl and to the minimum average counts in the presence of buffer. Theoretical curves were generated using nonlinear regression curve-fitting analysis of either sigmoidal concentration-response or sigmoidal concentration-response (variable slope), and the IC50 values with the best-fit curve determined by GraphPad Prism were reported.

T1 sequence (Q00975 whole entry): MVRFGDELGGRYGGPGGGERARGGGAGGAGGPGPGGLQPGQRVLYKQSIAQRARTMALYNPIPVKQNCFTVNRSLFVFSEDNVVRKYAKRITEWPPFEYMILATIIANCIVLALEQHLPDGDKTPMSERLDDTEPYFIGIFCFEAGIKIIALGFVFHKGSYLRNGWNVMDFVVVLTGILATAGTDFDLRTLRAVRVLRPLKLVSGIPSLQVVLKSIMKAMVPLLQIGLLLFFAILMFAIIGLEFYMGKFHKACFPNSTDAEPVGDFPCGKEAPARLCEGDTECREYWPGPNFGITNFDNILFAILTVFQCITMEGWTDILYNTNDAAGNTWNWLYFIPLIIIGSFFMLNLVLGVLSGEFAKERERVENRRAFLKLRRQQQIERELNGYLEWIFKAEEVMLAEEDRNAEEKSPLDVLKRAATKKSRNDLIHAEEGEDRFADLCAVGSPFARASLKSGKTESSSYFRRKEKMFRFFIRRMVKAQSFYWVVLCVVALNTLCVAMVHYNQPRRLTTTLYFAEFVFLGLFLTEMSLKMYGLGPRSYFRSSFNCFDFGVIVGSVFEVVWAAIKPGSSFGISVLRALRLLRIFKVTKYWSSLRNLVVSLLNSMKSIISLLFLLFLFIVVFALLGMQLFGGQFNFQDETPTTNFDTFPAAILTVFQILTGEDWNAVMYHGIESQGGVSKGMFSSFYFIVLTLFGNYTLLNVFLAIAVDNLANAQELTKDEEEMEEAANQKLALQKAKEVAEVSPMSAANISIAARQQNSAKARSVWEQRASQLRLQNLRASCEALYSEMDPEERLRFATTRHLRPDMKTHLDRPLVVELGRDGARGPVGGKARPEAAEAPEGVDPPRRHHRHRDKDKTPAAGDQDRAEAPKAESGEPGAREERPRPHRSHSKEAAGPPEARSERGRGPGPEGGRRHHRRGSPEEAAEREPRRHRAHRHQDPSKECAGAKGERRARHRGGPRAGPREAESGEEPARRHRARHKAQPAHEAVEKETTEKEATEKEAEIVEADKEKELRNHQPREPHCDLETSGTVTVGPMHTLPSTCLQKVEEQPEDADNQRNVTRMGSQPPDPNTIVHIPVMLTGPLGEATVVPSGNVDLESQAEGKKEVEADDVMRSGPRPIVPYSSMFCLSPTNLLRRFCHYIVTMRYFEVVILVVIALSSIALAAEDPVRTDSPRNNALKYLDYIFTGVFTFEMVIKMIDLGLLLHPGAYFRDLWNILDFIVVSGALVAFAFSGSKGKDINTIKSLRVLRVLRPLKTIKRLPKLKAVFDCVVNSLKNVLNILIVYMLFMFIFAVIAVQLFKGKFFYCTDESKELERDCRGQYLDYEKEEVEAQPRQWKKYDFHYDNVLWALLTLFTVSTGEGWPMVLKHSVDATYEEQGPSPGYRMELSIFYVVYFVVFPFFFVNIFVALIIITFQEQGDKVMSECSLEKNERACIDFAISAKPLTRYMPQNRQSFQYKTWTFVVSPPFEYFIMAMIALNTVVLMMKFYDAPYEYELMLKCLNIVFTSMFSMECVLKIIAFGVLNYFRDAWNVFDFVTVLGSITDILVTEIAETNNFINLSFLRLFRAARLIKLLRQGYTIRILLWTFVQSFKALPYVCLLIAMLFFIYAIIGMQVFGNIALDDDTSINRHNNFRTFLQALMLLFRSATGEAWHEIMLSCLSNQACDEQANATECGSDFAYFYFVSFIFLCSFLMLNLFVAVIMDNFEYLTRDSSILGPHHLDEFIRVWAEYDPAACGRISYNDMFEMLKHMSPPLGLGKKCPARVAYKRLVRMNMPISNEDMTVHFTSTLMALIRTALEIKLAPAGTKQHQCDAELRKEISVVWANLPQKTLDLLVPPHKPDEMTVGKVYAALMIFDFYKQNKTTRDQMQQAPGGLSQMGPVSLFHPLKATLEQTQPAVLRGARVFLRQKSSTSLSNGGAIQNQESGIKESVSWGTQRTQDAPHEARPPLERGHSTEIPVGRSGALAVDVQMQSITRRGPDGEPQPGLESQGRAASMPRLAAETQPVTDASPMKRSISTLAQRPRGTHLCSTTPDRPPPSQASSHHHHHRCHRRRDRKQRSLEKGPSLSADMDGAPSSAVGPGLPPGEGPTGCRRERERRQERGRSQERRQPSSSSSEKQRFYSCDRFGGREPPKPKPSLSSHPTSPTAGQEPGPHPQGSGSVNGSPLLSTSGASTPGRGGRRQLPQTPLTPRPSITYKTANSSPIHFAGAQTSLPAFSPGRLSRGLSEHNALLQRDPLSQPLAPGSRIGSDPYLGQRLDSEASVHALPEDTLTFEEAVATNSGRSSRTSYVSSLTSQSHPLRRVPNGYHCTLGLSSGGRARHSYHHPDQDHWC
T1 sequence (P54284 whole entry partner): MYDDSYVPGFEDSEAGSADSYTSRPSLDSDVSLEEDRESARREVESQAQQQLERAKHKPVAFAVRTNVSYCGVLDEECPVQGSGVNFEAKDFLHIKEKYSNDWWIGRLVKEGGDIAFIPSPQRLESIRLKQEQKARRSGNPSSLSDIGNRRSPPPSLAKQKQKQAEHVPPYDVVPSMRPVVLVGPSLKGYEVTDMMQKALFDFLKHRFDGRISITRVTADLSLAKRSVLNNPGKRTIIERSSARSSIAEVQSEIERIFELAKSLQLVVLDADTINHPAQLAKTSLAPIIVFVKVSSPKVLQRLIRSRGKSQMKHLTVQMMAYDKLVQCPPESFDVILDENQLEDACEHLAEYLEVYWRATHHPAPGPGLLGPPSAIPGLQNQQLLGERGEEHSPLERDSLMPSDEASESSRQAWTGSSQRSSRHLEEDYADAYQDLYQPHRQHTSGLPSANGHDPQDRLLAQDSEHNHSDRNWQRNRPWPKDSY
T1 sequence (P54289 25-956 partner limits assumed): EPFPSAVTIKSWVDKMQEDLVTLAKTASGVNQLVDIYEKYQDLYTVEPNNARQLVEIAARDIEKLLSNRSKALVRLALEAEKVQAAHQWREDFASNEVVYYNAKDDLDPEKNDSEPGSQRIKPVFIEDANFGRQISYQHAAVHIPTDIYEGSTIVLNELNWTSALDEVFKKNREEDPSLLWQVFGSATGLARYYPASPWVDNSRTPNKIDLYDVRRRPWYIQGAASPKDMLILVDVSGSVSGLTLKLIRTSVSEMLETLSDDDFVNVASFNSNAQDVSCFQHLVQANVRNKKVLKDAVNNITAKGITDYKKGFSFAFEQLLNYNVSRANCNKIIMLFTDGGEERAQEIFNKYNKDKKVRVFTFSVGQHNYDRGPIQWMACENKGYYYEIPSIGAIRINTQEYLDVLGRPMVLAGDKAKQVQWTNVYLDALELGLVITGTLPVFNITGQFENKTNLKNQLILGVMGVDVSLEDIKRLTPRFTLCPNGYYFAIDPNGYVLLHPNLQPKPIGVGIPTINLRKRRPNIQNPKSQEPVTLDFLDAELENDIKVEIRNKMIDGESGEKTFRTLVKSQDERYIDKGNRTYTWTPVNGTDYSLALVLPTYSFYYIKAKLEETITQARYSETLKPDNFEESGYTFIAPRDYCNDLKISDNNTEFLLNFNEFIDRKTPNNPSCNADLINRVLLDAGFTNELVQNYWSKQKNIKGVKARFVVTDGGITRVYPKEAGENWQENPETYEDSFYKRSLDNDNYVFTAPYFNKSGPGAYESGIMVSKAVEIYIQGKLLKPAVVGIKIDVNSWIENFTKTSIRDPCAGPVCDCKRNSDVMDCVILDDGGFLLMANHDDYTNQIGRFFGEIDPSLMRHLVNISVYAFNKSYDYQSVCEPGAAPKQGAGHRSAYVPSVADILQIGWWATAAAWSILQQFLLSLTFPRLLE
T1 sequence (P54289 957-1103 partner limits assumed): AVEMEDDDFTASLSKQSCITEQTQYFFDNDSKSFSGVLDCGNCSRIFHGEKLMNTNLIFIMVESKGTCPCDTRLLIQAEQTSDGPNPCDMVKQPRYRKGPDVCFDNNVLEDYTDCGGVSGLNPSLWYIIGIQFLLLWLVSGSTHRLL

Row | Compound | IC50 | inhibition at 0.33 µM
1 | COc1ccccc1-n1nc2c(c1-c1ccc(Cl)cc1)CN(S(=O)(=O)CCN1C(=O)CCC1=O)C2 [Cpd 42, 1-(2-{[3-(4-Chlorophenyl)-2-(2-methoxyphenyl)-2,6-dihydropyrrolo[3,4-c]pyrazol-5(4H)-yl]sulfonyl}ethyl)pyrrolidine-2,5-dione] | 48 nM | 
2 | COc1ccccc1-n1nc2c(c1-c1ccc(Cl)cc1)CN(S(=O)(=O)CCOc1ccccc1)C2 [Cpd 43, 3-(4-Chlorophenyl)-2-(2-methoxyphenyl)-5-[(2-phenoxyethyl)sulfonyl]-2,4,5,6-tetrahydropyrrolo[3,4-c]pyrazole] | 100 nM | 
3 | O=S1(=O)CCC(S(=O)(=O)N2Cc3nn(-c4ccccc4OC(F)(F)F)c(-c4ccc(Cl)cc4)c3C2)C1 (stereo not drawn) [Cpd 48, 3-(4-Chlorophenyl)-5-[(1,1-dioxidotetrahydrothiophen-3-yl)sulfonyl]-2-[2-(trifluoromethoxy)phenyl]-2,4,5,6-tetrahydropyrrolo[3,4-c]pyrazole] | 77 nM | 
4 | CCOc1ccccc1-n1nc2c(c1-c1ccc(Cl)cc1)CN(S(=O)(=O)Cc1ccccc1)C2 [Cpd 53, 5-(Benzylsulfonyl)-3-(4-chlorophenyl)-2-(2-ethoxyphenyl)-2,4,5,6-tetrahydropyrrolo[3,4-c]pyrazole] | 7 nM | 
5 | CC(C)Oc1ccccc1-n1nc2c(c1-c1ccc(Cl)cc1)CN(S(=O)(=O)N(C)C)C2 [Cpd 63, 3-(4-Chlorophenyl)-N,N-dimethyl-2-[2-(1-methylethoxy)phenyl]-2,6-dihydropyrrolo[3,4-c]pyrazole-5(4H)-sulfonamide] | 3 nM | 
6 | COc1ccc(-n2nc3c(c2-c2ccc(Cl)cc2)CN(S(C)(=O)=O)C3)c(C)c1 [Cpd 66, 3-(4-Chlorophenyl)-2-(4-methoxy-2-methylphenyl)-5-(methylsulfonyl)-2,4,5,6-tetrahydropyrrolo[3,4-c]pyrazole] |  | 35%
7 | COc1ccc(-n2nc3c(c2-c2ccc(Cl)cc2)CN(S(=O)(=O)C(C)C)C3)c(C)c1 [Cpd 67, 3-(4-Chlorophenyl)-2-(4-methoxy-2-methylphenyl)-5-[(1-methylethyl)sulfonyl]-2,4,5,6-tetrahydropyrrolo[3,4-c]pyrazole] | 190 nM | 61%
8 | COc1ccc(-n2nc3c(c2-c2ccc(Cl)cc2)CN(S(=O)(=O)N(C)C)C3)c(C)c1 [Cpd 69, 3-(4-Chlorophenyl)-2-(4-methoxy-2-methylphenyl)-N,N-dimethyl-2,6-dihydropyrrolo[3,4-c]pyrazole-5(4H)-sulfonamide] | 130 nM | 69%
9 | COc1ccc(-n2nc3c(c2-c2ccc(Cl)cc2)CN(S(=O)(=O)C(C)C)C3)c(F)c1 [Cpd 79, 3-(4-Chlorophenyl)-2-(2-fluoro-4-methoxyphenyl)-5-[(1-methylethyl)sulfonyl]-2,4,5,6-tetrahydropyrrolo[3,4-c]pyrazole] | 180 nM | 61%
10 | CN(C)S(=O)(=O)N1Cc2nn(-c3ccccc3OCC(F)(F)F)c(-c3ccc(Cl)cc3)c2C1 [Cpd 90, 3-(4-Chlorophenyl)-N,N-dimethyl-2-[2-(2,2,2-trifluoroethoxy)phenyl]-2,6-dihydropyrrolo[3,4-c]pyrazole-5(4H)-sulfonamide] | 85 nM | 80%
11 | CN(C)S(=O)(=O)N1Cc2nn(-c3ccccc3OC(C)(C)C)c(-c3ccc(Cl)cc3)c2C1 [Cpd 91, 2-(2-tert-Butoxyphenyl)-3-(4-chlorophenyl)-N,N-dimethyl-2,6-dihydropyrrolo[3,4-c]pyrazole-5(4H)-sulfonamide] | 63 nM | 87%
12 | COc1ccccc1-n1nc2c(c1-c1cnc3ccccc3c1)CN(S(=O)(=O)C(C)C)C2 [Cpd 93, 3-{2-(2-Methoxyphenyl)-5-[(1-methylethyl)sulfonyl]-2,4,5,6-tetrahydropyrrolo[3,4-c]pyrazol-3-yl}quinoline] | 100 nM | 
13 | COc1ccccc1-n1nc2c(c1-c1ccc(C)nc1)CN(S(=O)(=O)C(C)C)C2 [Cpd 94, 2-(2-Methoxyphenyl)-5-[(1-methylethyl)sulfonyl]-3-(6-methylpyridin-3-yl)-2,4,5,6-tetrahydropyrrolo[3,4-c]pyrazole] |  | 46%
14 | COc1ccccc1-n1nc2c(c1-c1ccc(OC(C)C)nc1)CN(S(=O)(=O)C(C)C)C2 [Cpd 96, 2-(2-Methoxyphenyl)-3-[6-(1-methylethoxy)pyridin-3-yl]-5-[(1-methylethyl)sulfonyl]-2,4,5,6-tetrahydropyrrolo[3,4-c]pyrazole] | 130 nM | 79%

Second part, the molecule after the results:

Row | IC50 | inhibition at 0.33 µM | Compound
15 | 130 nM | 71% | COc1ccc(-n2nc3c(c2-c2ccc(Cl)cc2)CN(S(=O)(=O)C2CCCCC2)C3)c(C)c1 [Cpd 68, 3-(4-Chlorophenyl)-5-(cyclohexylsulfonyl)-2-(4-methoxy-2-methylphenyl)-2,4,5,6-tetrahydropyrrolo[3,4-c]pyrazole]
16 | 75 nM | 74% | COc1cc(F)ccc1-n1nc2c(c1-c1ccc(Cl)cc1)CN(S(C)(=O)=O)C2 [Cpd 70, 3-(4-Chlorophenyl)-2-(4-fluoro-2-methoxyphenyl)-5-(methylsulfonyl)-2,4,5,6-tetrahydropyrrolo[3,4-c]pyrazole]
17 | 95 nM | 82% | COc1cc(F)ccc1-n1nc2c(c1-c1ccc(Cl)cc1)CN(S(=O)(=O)C1CCCCC1)C2 [Cpd 72, 3-(4-Chlorophenyl)-5-(cyclohexylsulfonyl)-2-(4-fluoro-2-methoxyphenyl)-2,4,5,6-tetrahydropyrrolo[3,4-c]pyrazole]
18 | 47 nM | 82% | COc1cc(C)ccc1-n1nc2c(c1-c1ccc(Cl)cc1)CN(S(C)(=O)=O)C2 [Cpd 74, 3-(4-Chlorophenyl)-2-(2-methoxy-4-methylphenyl)-5-(methylsulfonyl)-2,4,5,6-tetrahydropyrrolo[3,4-c]pyrazole]
19 | 32 nM | 93% | COc1cc(C)ccc1-n1nc2c(c1-c1ccc(Cl)cc1)CN(S(=O)(=O)C(C)C)C2 [Cpd 75, 3-(4-Chlorophenyl)-2-(2-methoxy-4-methylphenyl)-5-[(1-methylethyl)sulfonyl]-2,4,5,6-tetrahydropyrrolo[3,4-c]pyrazole]
20 | 56 nM | 82% | COc1cc(C)ccc1-n1nc2c(c1-c1ccc(Cl)cc1)CN(S(=O)(=O)N1CCC(C)CC1)C2 [Cpd 77, 3-(4-Chlorophenyl)-2-(2-methoxy-4-methylphenyl)-5-[(4-methylpiperidin-1-yl)sulfonyl]-2,4,5,6-tetrahydropyrrolo[3,4-c]pyrazole]
21 | 200 nM | 62% | COc1ccc(-n2nc3c(c2-c2ccc(Cl)cc2)CN(S(C)(=O)=O)C3)c(F)c1 [Cpd 78, 3-(4-Chlorophenyl)-2-(2-fluoro-4-methoxyphenyl)-5-(methylsulfonyl)-2,4,5,6-tetrahydropyrrolo[3,4-c]pyrazole]
22 | 140 nM | 62% | COc1ccc(-n2nc3c(c2-c2ccc(Cl)cc2)CN(S(=O)(=O)N2CCC(C)CC2)C3)c(F)c1 [Cpd 80, 3-(4-Chlorophenyl)-2-(2-fluoro-4-methoxyphenyl)-5-[(4-methylpiperidin-1-yl)sulfonyl]-2,4,5,6-tetrahydropyrrolo[3,4-c]pyrazole]
